For experiment [1], the target named is T1, Toll-like receptor 7 (Homo sapiens, UniProt Q9NYK1).
T1 sequence (Q9NYK1 whole entry): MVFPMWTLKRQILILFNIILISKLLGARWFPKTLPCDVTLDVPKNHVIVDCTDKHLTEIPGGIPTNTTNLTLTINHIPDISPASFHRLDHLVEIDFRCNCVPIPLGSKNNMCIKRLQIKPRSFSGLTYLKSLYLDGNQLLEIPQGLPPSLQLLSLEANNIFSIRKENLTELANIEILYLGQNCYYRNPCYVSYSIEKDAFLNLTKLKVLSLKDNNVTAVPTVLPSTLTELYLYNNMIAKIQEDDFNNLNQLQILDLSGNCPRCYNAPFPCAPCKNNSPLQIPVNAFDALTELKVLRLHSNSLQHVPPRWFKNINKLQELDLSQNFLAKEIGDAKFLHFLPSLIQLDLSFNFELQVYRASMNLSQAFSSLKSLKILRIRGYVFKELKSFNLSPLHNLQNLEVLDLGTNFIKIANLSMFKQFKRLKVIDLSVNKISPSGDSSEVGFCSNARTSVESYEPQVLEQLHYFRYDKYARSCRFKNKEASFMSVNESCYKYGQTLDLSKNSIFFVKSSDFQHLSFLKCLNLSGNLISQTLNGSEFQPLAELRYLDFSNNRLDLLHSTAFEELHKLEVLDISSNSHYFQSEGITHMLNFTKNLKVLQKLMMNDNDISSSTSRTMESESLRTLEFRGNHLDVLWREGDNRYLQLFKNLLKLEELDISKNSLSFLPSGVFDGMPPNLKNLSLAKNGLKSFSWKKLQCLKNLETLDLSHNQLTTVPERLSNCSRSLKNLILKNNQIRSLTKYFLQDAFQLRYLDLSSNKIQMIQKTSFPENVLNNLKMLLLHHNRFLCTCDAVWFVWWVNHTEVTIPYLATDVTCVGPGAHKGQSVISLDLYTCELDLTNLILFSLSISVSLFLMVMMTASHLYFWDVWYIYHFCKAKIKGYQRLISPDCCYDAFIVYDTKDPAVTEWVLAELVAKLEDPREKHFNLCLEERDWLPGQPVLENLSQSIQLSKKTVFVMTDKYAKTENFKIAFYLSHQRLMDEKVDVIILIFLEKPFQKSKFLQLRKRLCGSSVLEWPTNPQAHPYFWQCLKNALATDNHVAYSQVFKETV
The experiment is described as follows: Agonist activity at human TLR7 by reporter cell based assay.

The target in experiment [2] is T1, Toll-like receptor 7. The experiment is described as follows: Agonist activity at recombinant human TLR7 transfected in HEK293 cells assessed as induction of SEAP production incubated overnight by SEAP reporter gene based assay. It is filed as cell-based.

The values that follow come from ChEMBL document CHEMBL5244202, “Structural evolution of toll-like receptor 7/8 agonists from imidazoquinolines to imidazoles” (RSC Med Chem, 2021).

Broadly, the EC50 is the concentration needed to bring the measured effect to its halfway point. `CCCCc1nc2c(N)nc3ccccc3c2n1CCCN(Cc1cccc(C(=O)OC)c1)C(=O)CN1CCN(CCO)CC1` showed an EC50 on Toll-like receptor 7 [1] of 501 nM.
Same read-out and setting: under `CCCCc1nc2c(N)nc3ccccc3c2n1CCCN(Cc1cccc(C(=O)OC)c1)C(=O)CN1CCN(C(C)=O)CC1` stands 1260 nM; under `CCCCc1nc2c(N)nc3ccccc3c2n1CCCN(Cc1cccc(C(=O)OC)c1)C(=O)CN1CCC(O)C1` (stereo not given), 398 nM; under `CCCCc1nc2c(N)nc3ccccc3c2n1CCCN(Cc1cccc(C(=O)OC)c1)C(=O)CN1CCCOCC1`, 398 nM.
For `CCC[C@@H](CO)Nc1nc(N)nc(C)c1Cc1ccc(CNCCO)cc1OC`, on Toll-like receptor 7 [2], the half-maximal effective concentration (EC50) is 95.5 nM.
Regarding `CCCCc1nc2c(N)nc3ccccc3c2n1CCCN(Cc1cccc(C(=O)OC)c1)C(=O)CN1CCCN(C(=O)NCC)CC1`, on Toll-like receptor 7 [1], the EC50 is 1260 nM.
As for `CCC[C@@H](CO)Nc1nc(N)nc(C)c1Cc1ccc(CNC2CNC2)cc1OC`, at Toll-like receptor 7 [2], the concentration giving a half-maximal response (EC50) is 380 nM.
Regarding `CCCCc1nc2c(N)nc3ccccc3c2n1CCCN(CCCN1CCN(C)CC1)Cc1cccc(C(=O)OC)c1`, the concentration giving a half-maximal response (EC50) at Toll-like receptor 7 [1] was 251 nM.
On to `CCCC[C@@H](CCO)Nc1nc(N)nc(C)c1Cc1ccc(CC(=O)OCC2CCN(C)CC2)cc1F`, for which the half-maximal effective concentration (EC50) on Toll-like receptor 7 [1] was 39.8 nM.
In turn, `CCCCCNc1nc(N)nc(C)c1CCCN(Cc1ccc(CC(=O)OC)cc1)C(=O)CN1CCCCC1` had an EC50 on Toll-like receptor 7 [1] of 631 nM.
The same measure, in the same setting: under `COCCc1nc2c(N)nc3ccccc3c2n1CCCN(Cc1ccc(CC(=O)OC)cc1)C(=O)CCN(C)C` stands 158 nM; under `CCCCc1nc2c(N)nc3ccccc3c2n1CCCN(Cc1cccc(C(=O)OC)c1)C(=O)CN1CCCN(S(C)(=O)=O)CC1`, 631 nM.
Same read-out and setting: under `CCCCc1nc2c(N)nc3ccccc3c2n1CCCN(Cc1cccc(C(=O)OC)c1)C(=O)CN1CC[C@@H](O)C1` stands 398 nM; under `CCCCc1nc2c(N)nc3ccccc3c2n1CCCN(CCCN(C)CC)Cc1cccc(C(=O)OC)c1`, 158 nM; under `CCCCc1nc2c(N)nc3ccccc3c2n1CCCN(CCCN1CCOCC1)Cc1cccc(C(=O)OC)c1`, 251 nM.
The same measure, in the same setting: the figure for `CCCCc1nc2c(N)nc3ccccc3c2n1CCCN(Cc1cccc(C(=O)OC)c1)C(=O)CN1CCCC1` is 63.1 nM; for `CCCCc1nc2c(N)nc3ccccc3c2n1CCCN(Cc1cccc(C(=O)OC)c1)C(=O)CN1CC(O)C1` it is 1580 nM; for `CCCCc1nc2c(N)nc3ccccc3c2n1CCCN(Cc1cccc(C(=O)OC)c1)C(=O)CN1CCCN(C)CC1` it is 251 nM.
Regarding `CCCCc1nc2c(N)nc3ccccc3c2n1CCCN(Cc1cccc(C(=O)OC)c1)C(=O)CN(CCC)CCC`, on Toll-like receptor 7 [1], the midpoint of the response, the EC50, lay at 79.4 nM.
Still for that read-out and setting: the figure for `CCCCc1nc2c(N)nc3ccccc3c2n1CCCN(Cc1cccc(C(=O)OC)c1)C(=O)CN(C)C` is 39.8 nM.
Consider `CCC[C@@H](CCO)Nc1nc(N)nc(C)c1Cc1ccc(Cn2ccnc2)cc1OC`, for which the EC50 on Toll-like receptor 7 [2] was 2.75 nM.
On to `CCCCc1nc2c(N)nc3ccccc3c2n1CCCN(CCCN(C)C)Cc1cccc(C(=O)OC)c1`, for which the EC50 on Toll-like receptor 7 [1] was 251 nM.
Same read-out and setting: the figure for `CCCCCNc1nc(N)nc(C)c1CCCN(Cc1cccc(CC(=O)OC)c1)C(=O)CN1CCC[C@@H]1C(=O)OC` is 631 nM; for `CCCCc1nc2c(N)nc3ccccc3c2n1CCCN(Cc1cccc(C(=O)OC)c1)C1CCN(C)CC1` it is 316 nM; for `CCCC[C@@H](CCO)Nc1nc(N)nc(C)c1Cc1ccc(CC(=O)OCCC2CCN(C)CC2)cc1F` it is 31.6 nM.
Still for that read-out and setting: the figure for `CCCCc1nc2c(N)nc3ccccc3c2n1CCCN(Cc1cccc(C(=O)OC)c1)C(=O)CN(C)CCOC` is 158 nM.
Regarding `CCC[C@@H](CCO)Nc1nc(N)nc(C)c1Cc1ccc(CN2CCCC2)cc1OC`, the EC50 at Toll-like receptor 7 [2] is under 1.95 nM.
`CCCCc1nc2c(N)nc3ccccc3c2n1CCCN(Cc1cccc(C(=O)OC)c1)C(=O)CN1CCC1`: a half-maximal response at Toll-like receptor 7 [1] (EC50) required 251 nM.
On to `CCC[C@@H](CCO)Nc1nc(N)nc(C)c1Cc1ccc(CN(C)CCOC)cc1OC`, for which, at Toll-like receptor 7 [2], the 50% effective concentration (EC50) is under 1.95 nM.
Turning to `CCCCCNc1nc(N)nc(C)c1CCCN(Cc1ccc(CC(=O)OC)cc1)C(=O)CC1CCN(C)CC1`, at Toll-like receptor 7 [1], the concentration for a half-maximal effect (EC50) is 794 nM.
On the same count and under the same terms, the figure for `CCCCc1nc2c(N)nc3ccccc3c2n1CCCN(Cc1cccc(C(=O)OC)c1)C(=O)CN(C)CCCC` is 126 nM.
With `CCCCc1nc2c(N)nc3ccccc3c2n1CCCN(Cc1cccc(C(=O)OC)c1)C(=O)CN1CCN(C)CC1`, the EC50 on Toll-like receptor 7 [1] was 79.4 nM.
Consider `CCC[C@@H](CCO)Nc1nc(N)nc(C)c1Cc1ccc(CN2CCN(C)CC2)cc1OC`, for which the EC50 at Toll-like receptor 7 [2] was under 1.95 nM.
As for `CCCCCNc1nc(N)nc(C)c1Cc1cccc(CC(=O)OCCCCN(C)C)c1`, the 50% effective concentration (EC50) at Toll-like receptor 7 [1] is 31.6 nM.
On the same count and under the same terms, the figure for `CCCCc1nc2c(N)nc3ccccc3c2n1CCCN(Cc1cccc(C(=O)OC)c1)C(=O)CN1C[C@@H](C)O[C@@H](C)C1` is 1000 nM.
Consider `CCC[C@@H](CCO)Nc1nc(N)nc(C)c1Cc1ccc(CN2CCNCC2)cc1OC`, for which the EC50 at Toll-like receptor 7 [2] is 5.89 nM.
For `CCCC[C@@H](CCO)Nc1nc(N)nc(C)c1Cc1ccc(CC(=O)OCCCCN2CCN(C)CC2)cc1F`, it took 25.1 nM to reach a half-maximal effect on Toll-like receptor 7 [1] (EC50).
Same read-out and setting: the figure for `CCCCc1nc2c(N)nc3ccccc3c2n1CCCN(Cc1cccc(C(=O)OC)c1)C(=O)CN1CCC(O)CC1` is 501 nM; for `CCCCc1nc2c(N)nc3ccccc3c2n1CCCN(Cc1cccc(C(=O)OC)c1)C(=O)CN1CCCCC1` it is 79.4 nM; for `CCCCc1nc2c(N)nc3ccccc3c2n1CCCN(Cc1cccc(C(=O)OC)c1)C(=O)CN1CCC(C(=O)N(C)C)CC1` it is 631 nM.
On the same count and under the same terms, under `CCCCc1nc2c(N)nc3ccccc3c2n1CCCN(Cc1cccc(C(=O)OC)c1)C(=O)CN1CCCCCC1` stands 79.4 nM; under `CCCC[C@@H](CO)Nc1nc(N)nc(C)c1Cc1ccc(CC(=O)OCCCCN(C)C)cc1`, 1260 nM; under `CCCC[C@@H](CCO)Nc1nc(N)nc(C)c1Cc1ccc(CC(=O)OCCCCN(C)C)cc1F`, 200 nM.
The compound `CCCCc1nc2c(N)nc3ccccc3c2n1CCCN(Cc1cccc(C(=O)OC)c1)C(=O)CN(C)C1CCOCC1` showed an EC50 at Toll-like receptor 7 [1] of 126 nM.
Still for that read-out and setting: the figure for `CCCCc1nc2c(N)nc3ccccc3c2n1CCCN(Cc1cccc(C(=O)OC)c1)C(=O)CN1CCC(OC)CC1` is 200 nM.
For `CCC[C@@H](CO)Nc1nc(N)nc(C)c1Cc1ccc(CN(C)C)cc1OC`, the concentration giving a half-maximal response (EC50) at Toll-like receptor 7 [2] was 2.29 nM.
The compound `CCCCc1nc2c(N)nc3ccccc3c2n1CCCN(Cc1cccc(C(=O)OC)c1)C(=O)CN1CCCN(C(C)=O)CC1` gave a concentration giving a half-maximal response (EC50) on Toll-like receptor 7 [1] of 501 nM.
Regarding `CCCCc1nc2c(N)nc3ccccc3c2n1CCCN(Cc1cccc(C(=O)OC)c1)C(=O)CN(CCO)CCO`, at Toll-like receptor 7 [1], the EC50 is 1580 nM.
`CCCCc1nc2c(N)nc3ccccc3c2n1CCCN(Cc1cccc(C(=O)OC)c1)C(=O)CN1CCN(S(C)(=O)=O)CC1` showed a concentration giving a half-maximal response (EC50) at Toll-like receptor 7 [1] of 794 nM.
Still for that read-out and setting: the figure for `CCCC[C@@H](CCO)Nc1nc(N)nc(C)c1Cc1ccc(CC(=O)OCCCCN(C)C)cc1` is 25.1 nM.
